Test results reported in article PMC13267069 (npj Drug Discovery, 2025).

Target: CFTR (Homo sapiens, UniProt P13569, G551D)
Assay: Ussing chamber short-circuit current, FRT cells
Format: cell-based

CFTR, sequence (P13569 whole entry G551D): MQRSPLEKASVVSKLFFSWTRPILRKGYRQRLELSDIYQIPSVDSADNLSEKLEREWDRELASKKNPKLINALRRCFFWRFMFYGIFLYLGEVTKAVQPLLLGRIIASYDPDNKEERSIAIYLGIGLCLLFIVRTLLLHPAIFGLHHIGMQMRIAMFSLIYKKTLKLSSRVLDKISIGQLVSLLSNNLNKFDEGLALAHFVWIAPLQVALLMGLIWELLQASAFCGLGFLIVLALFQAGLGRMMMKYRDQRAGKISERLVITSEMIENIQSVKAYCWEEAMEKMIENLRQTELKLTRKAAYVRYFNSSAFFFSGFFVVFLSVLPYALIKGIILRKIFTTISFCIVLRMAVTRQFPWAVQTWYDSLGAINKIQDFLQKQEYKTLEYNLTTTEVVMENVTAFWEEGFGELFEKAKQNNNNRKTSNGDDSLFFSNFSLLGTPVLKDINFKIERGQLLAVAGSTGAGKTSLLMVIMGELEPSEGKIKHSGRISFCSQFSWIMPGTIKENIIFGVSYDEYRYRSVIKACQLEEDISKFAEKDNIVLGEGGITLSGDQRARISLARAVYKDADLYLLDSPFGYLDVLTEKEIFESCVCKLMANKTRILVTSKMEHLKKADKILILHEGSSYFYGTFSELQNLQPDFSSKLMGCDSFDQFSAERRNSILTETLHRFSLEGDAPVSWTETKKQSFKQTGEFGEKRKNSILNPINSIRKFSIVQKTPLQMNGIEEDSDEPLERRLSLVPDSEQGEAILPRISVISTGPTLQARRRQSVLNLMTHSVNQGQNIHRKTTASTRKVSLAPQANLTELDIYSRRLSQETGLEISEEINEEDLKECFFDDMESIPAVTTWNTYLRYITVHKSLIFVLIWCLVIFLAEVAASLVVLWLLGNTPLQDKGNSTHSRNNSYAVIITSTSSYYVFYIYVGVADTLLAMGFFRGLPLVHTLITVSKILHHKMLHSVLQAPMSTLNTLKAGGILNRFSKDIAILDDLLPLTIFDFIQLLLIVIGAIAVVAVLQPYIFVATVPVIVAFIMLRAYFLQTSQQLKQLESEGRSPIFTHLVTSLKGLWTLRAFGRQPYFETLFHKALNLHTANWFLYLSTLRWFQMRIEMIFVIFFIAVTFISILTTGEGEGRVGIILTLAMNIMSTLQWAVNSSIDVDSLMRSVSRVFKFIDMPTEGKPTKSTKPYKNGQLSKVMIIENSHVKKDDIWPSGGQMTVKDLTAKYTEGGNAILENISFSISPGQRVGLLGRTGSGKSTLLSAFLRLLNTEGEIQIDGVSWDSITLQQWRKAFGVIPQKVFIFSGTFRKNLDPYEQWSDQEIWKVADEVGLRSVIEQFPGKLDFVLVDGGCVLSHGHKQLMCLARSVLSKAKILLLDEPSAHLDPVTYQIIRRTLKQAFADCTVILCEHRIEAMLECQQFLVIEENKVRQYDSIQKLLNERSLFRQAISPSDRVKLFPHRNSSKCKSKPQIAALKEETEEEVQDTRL

CC(C)(C)c1cc(C(C)(C)C)c(NC(=O)c2c[nH]c3ccccc3c2=O)cc1O [VX-770]
Ussing chamber short-circuit current, FRT cells: In terms of efficacy as a single agent, uHTS159 is roughly equivalent to VX-770.
